Assay results from ChEMBL document CHEMBL5096193, “Potential pharmacological strategies targeting the Niemann-Pick C1 receptor and Ebola virus glycoprotein interaction” (Eur J Med Chem, 2021).

How the values were obtained:
[1] = system: Zaire ebolavirus; test: Antiviral activity against Zaire ebolavirus infected in african green monkey assessed as reduction in viral infection preincubated for 1 hr followed by viral infection 1 hr and measured after 8 days by crystal violet staining based plaque assay; format: functional, organism-based, Vero E6; details: Vero C1008
[2] = system: Ebolavirus; test: Antiviral activity against HIV based pseudotyped virus expressing Ebola-GP infected in human A549 cells assessed as inhibition of viral infection preincubated upto 12 hrs followed by viral infection and measured after 48 hrs; format: functional; details: Orthoebolavirus, time 60 hrs
[3] = system: Ebolavirus; test: Antiviral activity against HIV based pseudotyped virus expressing Ebola-GP infected in human HeLa cells assessed as reduction in viral infection preincubated for 1 hrs followed by viral infection and measured after 48hrs by Steady-Glo luciferase assay; format: functional, organism-based; details: Orthoebolavirus
[4] = system: Ebolavirus; test: Antiviral activity against Ebola virus; format: functional, organism-based; details: Orthoebolavirus
[5] = system: Ebolavirus; test: Antiviral activity against Ebola virus makona; format: functional, organism-based; details: Orthoebolavirus
[6] = system: Ebolavirus; test: Antiviral activity against VSV based pseudotyped virus expressing Ebola-GP infected in […] cells assessed as reduction in viral infection incubated for 24 hrs by linear regression analysis; format: functional, organism-based; details: Orthoebolavirus
[7] = system: Ebolavirus; test: Antiviral activity against Ebola virus infected in […] cells assessed as reduction in viral infection incubated for 10 days by crystal violet staining based method; format: functional, organism-based; details: Orthoebolavirus, 240 h
[8] = system: Ebolavirus; test: Antiviral activity against Ebola virus infected in African green monkey Vero E6 cells assessed as reduction in viral titer infected for 1 hr followed by compound addition and measured after 5 days by immunofocus assay; format: functional, organism-based; details: Orthoebolavirus, Vero C1008
[9] = Inhibition of NPC1/VSV pseudotyped Ebola Viral Glycoprotein protein-protein interaction; design: species or system Ebolavirus
[10] = system: Ebolavirus; test: Antiviral activity against HIV based pseudotyped virus expressing Ebola-GP infected in human 293T cells assessed as inhibition of viral infection preincubated for 1 hr followed by viral infection 1 hr and measured after 72 hrs; format: functional; details: Orthoebolavirus, 293TA; time 74 hrs
[11] = system: Ebolavirus; test: Antiviral activity against Zaire Ebola virus infected in African green monkey assessed as reduction in viral infection incubated for 48hrs by GFP fluorescence based method; format: functional, organism-based, Vero E6; details: Orthoebolavirus, Vero C1008, 48 h

## CCOc1ccc(NC(=O)CSc2nnc(COc3cccc(N(C)C)c3)n2-c2ccccc2)cc1
[1]
  IC50: 10 µM
[2]
  IC90: 25.7 µM

## O=C(CNCCC1CCN(Cc2ccccc2)CC1)Nn1c2ccccc2c2ccccc21
[3]
  IC50: 0.37 µM

## CN(C)CCOc1ccc(/C(=C(/CCCl)c2ccccc2)c2ccccc2)cc1 [TOREMIFENE]
[4]
  IC50: 0.162 µM

## CCC(CC)COC(=O)[C@H](C)N[P@](=O)(OC[C@H]1O[C@@](C#N)(c2ccc3c(N)ncnn23)[C@H](O)[C@@H]1O)Oc1ccccc1 [REMDESIVIR]
[5]
  IC50: 86 µM

## COc1ccc(S(=O)(=O)N(CC(=O)Nc2ccccc2-c2ccccc2)c2ccc(C)cc2)cc1
[1]
  IC50: 8.07 µM
[2]
  IC90: 8.6 µM

## CCN(CC)CC(=O)NNc1ccccc1Sc1cc(Cl)ccc1[N+](=O)[O-]
[3]
  IC50: 4.69 µM

## C[C@]12CC3CC(C(=O)N[C@H]4CC[C@H](N)CC4)(C1)C[C@@](c1ccccc1)(C3)C2
[6]
  EC50: 0.24 µM
[7]
  EC50: 0.24 µM

## NC(=O)c1nc(F)cnc1O [FAVIPIRAVIR]
[8]
  IC50: 67 µM

## COC(=O)c1ccc(COc2ccccc2CN2CCN(C(=O)CNC(=O)CC34CC5CC(CC(C5)C3)C4)CC2)cc1
[5]
  EC50: 0.16 µM
[9]
  IC50: 0.13 µM

## FC(C1=Nc2ccccc2N=C(c2ccccc2)C1)C(F)(F)F (configuration not stated)
[10]
  IC90: 12.1 µM
[11]
  IC50: 10 µM

## O=C(CN1CCCC1)NNc1ccccc1Sc1cc(Cl)ccc1[N+](=O)[O-]
[3]
  IC50: 2.04 µM

## O=C(CC12CC3CC(CC(C3)C1)C2)NCC(=O)N1CCN(Cc2ccccc2)CC1
[9]
  IC50: 1.6 µM
